Assay results: US20160083400A1, “TRICYCLIC GUANIDINE DERIVATIVE” (Sunovion Pharmaceuticals Inc., priority 2014, published 2016)

These molecules were tested against PDE1B (Homo sapiens, UniProt Q01064) (assay: In vitro HTRF PDE1 inhibition assay (PDE1B)). Details: 100 nM cyclic GMP, calmodulin, 45 minutes at 37° C.
Format: biochemical
From the text: The HTRF PDE1 assay utilized the HTRF technology, which is based on the competition between unlabeled cyclic nucleotide and cyclic nucleotide labeled with XL665 for the binding to cyclic nucleotide-specific antibody labeled with cryptate. The HTRF signal is thus inversely proportional to the concentration of cyclic nucleotide being measured. Since phosphodiesterases break down cyclic nucleotides the HTRF signal was used to determine PDE activity.
The Cisbio cGMP HTRF assay kit (Cat no: 62GM2PEC) was utilized. Cyclic GMP was diluted to 200 nM in HTRF assay buffer (1 mM CaCl2, 10 mM MgCl2, 10 mM Tris-HCl, 0.1% BSA, pH7.4). […] PDE (1A3, 1B or 1C) was diluted to 2× working concentration in HTRF assay buffer with 4 μg/ml Calmodulin, and 10 μl was added to initiate the reaction. The plate was then incubated for 45 minutes at 37° C. d2-Labelled cyclic GMP and anti-cGMP cryptate were diluted in 50 mM phosphate buffer, 0.8M KF, 1% Triton X100, 0.2% BSA, pH7.0. Following incubation 10 μl d2-cGMP, then 10 μl anti cGMP cryptate were added to each well and the plate was incubated for 45 minutes at rt. The plate was then read on Perkin Elmer Victor at 2 different FRET readings ex/emm 340 nm/665 nm and 340 nm/615 nm.

PDE1B, sequence (Q01064 whole entry): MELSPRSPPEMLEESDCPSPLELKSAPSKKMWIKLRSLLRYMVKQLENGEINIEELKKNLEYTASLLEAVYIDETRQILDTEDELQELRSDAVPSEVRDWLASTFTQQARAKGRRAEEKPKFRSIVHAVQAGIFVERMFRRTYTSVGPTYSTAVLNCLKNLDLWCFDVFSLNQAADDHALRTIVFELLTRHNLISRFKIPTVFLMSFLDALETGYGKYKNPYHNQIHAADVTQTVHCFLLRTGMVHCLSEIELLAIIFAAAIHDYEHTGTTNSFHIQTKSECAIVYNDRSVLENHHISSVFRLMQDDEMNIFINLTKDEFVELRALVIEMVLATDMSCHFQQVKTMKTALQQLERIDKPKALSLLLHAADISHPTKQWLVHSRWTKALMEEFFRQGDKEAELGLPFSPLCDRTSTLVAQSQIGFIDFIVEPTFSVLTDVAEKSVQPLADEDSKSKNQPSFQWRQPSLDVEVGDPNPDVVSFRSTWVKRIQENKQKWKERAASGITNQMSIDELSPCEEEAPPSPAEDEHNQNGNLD

| Compound | IC50 [µM] |
| --- | --- |
| COc1cc(C2CCn3c(nc4c(cnn4C(C)C)c3=O)N2)ccc1F (stereo not shown) [Example 11] | < 1 |
| CC(C)c1ncc2c(=O)n3c(nn12)NC(c1ccc(C(F)(F)F)cc1)CC3 (stereo not shown) [Example 50] | < 1 |
| Cc1ccc([C@@H]2CN3C(=O)c4cnc(C(C)C)n4NC3=N2)cc1 [Example 97, (2R)-8-Isopropyl-2-(4-methylphenyl)-2,10-dihydro-3H,5H-diimidazo[2,1-c:5′,1′-f][1,2,4]triazin-5-one] | < 1 |
| C[C@H](O)c1ncc2c(=O)n3c(nn12)N[C@@H](c1ccc(Cl)cc1)CC3 [Example 249] | 1 to 10 |
| CCCn1ncc2c(=O)n3c(nc21)NC(c1ccc(Cl)cc1)CC3 (stereo not shown) [Example 35] | < 1 |
| Cc1cc(C2CCn3c(nc4c(cnn4C(C)C)c3=O)N2)ccn1 (stereo not shown) [Example 26] | 1 to 10 |
| O=c1c2cnc(C3CCOCC3)n2nc2n1CC[C@@H](c1ccc(Cl)cc1C(F)(F)F)N2 [Example 123] | 1 to 10 |
| CC(C)c1nccc2c(=O)n3c(nc12)NC(c1ccc(Cl)cc1)CC3 (stereo not shown) [Example 173] | < 1 |
| O=c1c2cnc(C3CCCC3)n2nc2n1CC[C@@H](c1cncc(Cl)c1)N2 [Example 134] | < 1 |
| O=c1c2cnc(C3CCOCC3)n2nc2n1C[C@@H](c1ccc(Cl)cc1)N2 [Example 138] | < 1 |
| Cc1cccc([C@@H]2CCn3c(nn4c(C5CCOCC5)ncc4c3=O)N2)c1 [Example 263, (2S)-2-(3-Methylphenyl)-9-(tetrahydro-2H-pyran-4-yl)-1,2,3,4-tetrahydro-6H-imidazo[5,1-f]pyrimido[2,1-c][1,2,4]triazin-6-one] | < 1 |
| O=c1c2cnn(C3CCOCC3)c2nc2n1CC(c1ccc(Cl)cc1)N2 (stereo not shown) [Example 75] | < 1 |
| O=c1c2cnn(C3CCC3)c2nc2n1CCC(c1ccc(Cl)cc1)N2 (stereo not shown) [Example 44] | < 1 |
| CC(C)n1ncc2c(=O)n3c(nc21)NCCC3 [Example 254, 1-Isopropyl-6,7,8,10-tetrahydropyrazolo[3,4-d]pyrimido[1,2-a]pyrimidin-4(1H)-one] | < 1 |
| C=C(C)c1ncc2c(=O)n3c(nn12)N[C@@H](c1ccc(Cl)cc1)CC3 [Example 241] | < 1 |
| CC(=O)c1ncc2c(=O)n3c(nn12)N[C@@H](c1ccc(Cl)cc1)CC3 [Example 252, (2R)-9-Acetyl-2-(4-chlorophenyl)-1,2,3,4-tetrahydro-6H-imidazo[5,1-f]pyrimido[2,1-c][1,2,4]triazin-6-one] | 1 to 10 |
| CC(C)c1onc2c(=O)n3c(nc12)NC(c1ccc(C#N)cc1)CC3 (stereo not shown) [Example 157] | 1 to 10 |
| COc1cc(C2CCn3c(nn4c(C(C)C)ncc4c3=O)N2)ccc1F (stereo not shown) [Example 48] | < 1 |
| N#Cc1cccc(C2CCn3c(nn4c(C5CCOCC5)ncc4c3=O)N2)c1 (stereo not shown) [Example 94] | < 1 |
| CC(C)c1onc2c(=O)n3c(nc12)NC(c1cccc(Cl)c1)CC3 (stereo not shown) [Example 158] | 1 to 10 |
| Cc1cncc([C@@H]2CCn3c(nn4c(C5CCCC5)ncc4c3=O)N2)c1 [Example 133] | < 1 |
| CC1(c2ncc3c(=O)n4c(nn23)N[C@@H](c2ccc(Cl)cc2)CC4)CCCC1 [Example 245] | < 1 |
| COc1cccc(C2CCn3c(nn4c(C(C)C)ncc4c3=O)N2)c1 (stereo not shown) [Example 47] | < 1 |
| CC(C)n1ncc2c(=O)n3c(nc21)NC(c1ccccc1Cl)CC3 (stereo not shown) [Example 31] | < 1 |

| Compound | IC50 [µM] |
| --- | --- |
| O=c1c2cnn(C3CCCC3)c2nc2n1CC[C@H](c1ccc(Cl)cc1)N2 [Example 40] | < 1 |
| N#Cc1ccc(C2CCn3c(nc4c(C5CCOCC5)onc4c3=O)N2)cc1 (stereo not shown) [Example 156] | 10 to 100 |
| O=c1c2cnc(C3CCOCC3)n2nc2n1CCC1(CCCc3ccccc31)N2 (stereo not shown) [Example 180] | 1 to 10 |
| N#Cc1ccc(C2CCn3c(nn4c(C5CCC5)ncc4c3=O)N2)cc1 (stereo not shown) [Example 95] | < 1 |
| O=c1c2ccnc(C3CCOCC3)c2nc2n1CCC(c1ccc(Cl)cc1)N2 (stereo not shown) [Example 172] | 1 to 10 |
| O=c1c2cnn(C3CCOCC3)c2nc2n1C[C@H](c1ccc(Cl)cc1)N2 [Example 148] | < 1 |
| O=c1c2cnc(C(F)(F)F)n2nc2n1C[C@H](c1ccc(Cl)cc1)N2 [Example 251, (2S)-2-(4-Chlorophenyl)-8-(trifluoromethyl)-2,10-dihydro-3H,5H-diimidazo[2,1-c:5′,1′-f][1,2,4]triazin-5-one] | 1 to 10 |
| CC(C)c1ncc2c(=O)n3c(nn12)NC(c1ccc(C#N)cn1)CC3 (stereo not shown) [Example 92] | < 1 |
| CC(C)c1ncc2c(=O)n3c(nn12)N[C@H](c1ccc(Cl)cc1)CC3 [Example 49] | 1 to 10 |
| O=C1c2cnc([C@H]3CCOC3)n2NC2=N[C@@H](c3ccc(Cl)cc3)CN12 [Example 186, (2S)-2-(4-Chlorophenyl)-8-[(3R)-tetrahydro-3-furanyl]-2,10-dihydro-3H,5H-diimidazo[2,1-c:5′,1′-f][1,2,4]triazin-5-one] | < 1 |
| N#Cc1ccc(C2CCn3c(nc4c(C5CCCC5)onc4c3=O)N2)cc1 (stereo not shown) [Example 154] | 1 to 10 |
| COc1cncc([C@@H]2CCn3c(nn4c(C5CCCC5)ncc4c3=O)N2)c1 [Example 131] | < 1 |
| COc1cccc([C@@H]2CCn3c(nn4c(C5CCOCC5)ncc4c3=O)N2)c1 [Example 129] | < 1 |
| O=c1c2cnn(C3CC3)c2nc2n1CCC(c1ccc(Cl)cc1)N2 (stereo not shown) [Example 15] | < 1 |
| O=c1c2cnn(C3CCOCC3)c2nc2n1CCC(Cc1ccc(Cl)cc1)N2 (stereo not shown) [Example 17] | < 1 |
| CC(C)(C)c1ncc2c(=O)n3c(nn12)NC(c1ccc(Cl)cc1)CC3 (stereo not shown) [Example 68] | < 1 |
| C=Cc1ncc2c(=O)n3c(nn12)N[C@@H](c1ccc(Cl)cc1)CC3 [Example 248] | 1 to 10 |
| CC(C)c1ncc2c(=O)n3c(nn12)NC(c1ccc(Cl)cn1)CC3 (stereo not shown) [Example 51] | < 1 |
| COc1cncc([C@H]2CCn3c(nn4c(C5CCCC5)ncc4c3=O)N2)c1 [Example 130] | < 1 |
| COc1ccc([C@@H]2Cn3c(nn4c(C5CCOCC5)ncc4c3=O)N2)cc1 [Example 140] | < 1 |
| O=c1c2cnc(C3CCOCC3)n2nc2n1CC[C@H](c1ccc(Cl)cc1C(F)(F)F)N2 [Example 122] | < 1 |
| C[C@@H](O)c1ncc2c(=O)n3c(nn12)N[C@@H](c1ccc(Cl)cc1)CC3 [Example 250] | < 1 |
| O=c1c2cnn(C3CCCC3)c2nc2n1CCC(c1ccncc1)N2 (stereo not shown) [Example 3] | 1 to 10 |
| CC(C)c1ncc2n1NC1=N[C@H](c3ccc(Cl)cc3)CN1C2=O [Example 136, (2R)-2-(4-Chlorophenyl)-8-isopropyl-2,10-dihydro-3H,5H-diimidazo[2,1-c:5′,1′-f][1,2,4]triazin-5-one] | < 1 |

| Compound | IC50 [µM] |
| --- | --- |
| O=c1c2cnn(C3CCC(F)(F)CC3)c2nc2n1CCC(c1ccc(Cl)cc1)N2 (stereo not shown) [Example 39] | 1 to 10 |
| Cc1ccc(CC2CCn3c(nc4c(cnn4C(C)C)c3=O)N2)cn1 (stereo not shown) [Example 33] | 1 to 10 |
| COc1ccc([C@@H]2CN3C(=O)c4cnc(C5(C(F)(F)F)CC5)n4NC3=N2)cc1 [Example 255, (2R)-2-(4-Methoxyphenyl)-8-[1-(trifluoromethyl)cyclopropyl]-2,10-dihydro-3H,5H-diimidazo[2,1-c:5′,1′-f][1,2,4]triazin-5-one] | < 1 |
| CCn1ncc2c(=O)n3c(nc21)NC(c1ccc(Cl)cc1)CC3 (stereo not shown) [Example 34] | < 1 |
| CC(C)c1ncc2n1NC1=N[C@@H](c3ccc(Cl)cc3)CN1C2=O [Example 137, (2S)-2-(4-Chlorophenyl)-8-isopropyl-2,10-dihydro-3H,5H-diimidazo[2,1-c:5′,1′-f][1,2,4]triazin-5-one] | < 1 |
| CC(C)n1ncc2c(=O)n3c(nc21)N[C@H](c1ccc(Cl)cc1)C3 [Example 143] | < 1 |
| Cc1cncc([C@H]2CCn3c(nn4c(C5CCCC5)ncc4c3=O)N2)c1 [Example 132] | < 1 |
| Cc1cnc(CC2CCn3c(nc4c(cnn4C4CCCC4)c3=O)N2)nc1 (stereo not shown) [Example 70, 1-Cyclopentyl-8-[(5-methyl-2-pyrimidinyl)methyl]-6,7,8,10-tetrahydropyrazolo[3,4-d]pyrimido[1,2-a]pyrimidin-4(1H)-one] | 1 to 10 |
| Cc1ccc(CC2CCn3c(nc4c(cnn4C4CCCC4)c3=O)N2)cn1 (stereo not shown) [Example 42] | 1 to 10 |
| N#Cc1ccc(C2Cn3c(nc4c(cnn4C4CCOCC4)c3=O)N2)cc1 (stereo not shown) [Example 86, 4-[4-Oxo-1-(tetrahydro-2H-pyran-4-yl)-4,6,7,8-tetrahydro-1H-imidazo[1,2-a]pyrazolo[3,4-d]pyrimidin-7-yl]benzonitrile] | < 1 |
| O=c1c2cnc(C3CCOCC3)n2nc2n1CCC1(CCc3ccccc31)N2 (stereo not shown) [Example 177, 9-(Tetrahydro-2H-pyran-4-yl)-2′,3,3′,4-tetrahydro-1H,6H-spiro[imidazo[5,1-f]pyrimido[2,1-c][1,2,4]triazine-2,1′-inden]-6-one] | 1 to 10 |
| O=c1c2cnc(CO)n2nc2n1CC[C@H](c1ccc(Cl)cc1)N2 [Example 237] | 1 to 10 |
| Cc1cnc(CC2CCn3c(nc4c(cnn4C(C)C)c3=O)N2)nc1 (stereo not shown) [Example 73] | 1 to 10 |
| O=c1c2cnc(C3CCOCC3)n2nc2n1CC[C@@H](c1cccc(Cl)c1)N2 [Example 126] | < 1 |
| COc1cccc([C@H]2CCn3c(nn4c(C5CCOCC5)ncc4c3=O)N2)c1 [Example 128] | < 1 |
| CCC(CC)n1ncc2c(=O)n3c(nc21)NC(c1ccc(Cl)cc1)CC3 (stereo not shown) [Example 36] | < 1 |
| O=c1c2cnn(CC3CC3)c2nc2n1CCC(c1ccc(Cl)cc1)N2 (stereo not shown) [Example 37] | < 1 |
| O=c1c2cnn(CC(F)(F)F)c2nc2n1CCC(c1ccc(Cl)cc1)N2 (stereo not shown) [Example 38] | < 1 |
| O=c1c2cnc(C3CCC3)n2nc2n1CCC(c1ccc(Cl)cc1)N2 (stereo not shown) [Example 63] | < 1 |
| CC(C)c1ncc2c(=O)n3c(nn12)NC(c1ccc(C#N)cc1)CC3 (stereo not shown) [Example 91] | < 1 |
| COc1ccc([C@H]2CN3C(=O)c4cnc(C5(C(F)(F)F)CC5)n4NC3=N2)cc1 [Example 256, (2S)-2-(4-Methoxyphenyl)-8-[1-(trifluoromethyl)cyclopropyl]-2,10-dihydro-3H,5H-diimidazo[2,1-c:5′,1′-f][1,2,4]triazin-5-one] | < 1 |
| O=c1c2cnc(C3CCC3)n2nc2n1CCC(c1ccc(C(F)(F)F)cc1)N2 (stereo not shown) [Example 64] | < 1 |
